Data as given in ChEMBL document CHEMBL1759966, “Design and optimisation of orally active TLR7 agonists for the treatment of hepatitis C virus infection” (Bioorg Med Chem Lett, 2011).

Legend:
[1] = Lipophilicity, log D of the compound; assay type: physicochemical; settings: octanol/water
[2] = Half life in rat cytosol; assay type: ADME

Structure (SMILES)	logD [1]	half-life [2]
COCCCOc1cc2c([nH]c(=O)n2Cc2ccc(C)nc2)c(N)n1	1.8	
Nc1nc(C(F)(F)F)cc2c1[nH]c(=O)n2CC1CCCOC1 (centres undefined)	2	
Cc1ccc(Cn2c(=O)[nH]c3c(N)nc(OCC4CCOC4)cc32)cn1 (centres undefined)	1.8	
Cc1ccc(Cn2c(=O)[nH]c3c(N)nc(-c4nc(C)co4)cc32)cn1	2.1	> 16.7 h
Cc1ccc(Cn2c(=O)[nH]c3c(N)nc(OCC4CCN(C)CC4)cc32)cn1	0.2	
Cc1ccc(Cn2c(=O)[nH]c3c(N)nc(C(F)(F)F)cc32)nc1	2.2	1.38 h
Cc1nc(Cn2c(=O)[nH]c3c(N)nc(C(F)(F)F)cc32)co1	1.7	> 16.7 h
Nc1nc(C(F)(F)F)cc2c1[nH]c(=O)n2Cc1ccccc1	3.3	
COCCCn1c(=O)[nH]c2c(N)nc(C(F)(F)F)cc21	1.9	
Cc1nc(Cn2c(=O)[nH]c3c(N)nc(C(F)(F)F)cc32)cs1	2.3	> 16.7 h
Cc1ncc(Cn2c(=O)[nH]c3c(N)nc(C(F)(F)F)cc32)cn1	1.6	
Cc1cnc(Cn2c(=O)[nH]c3c(N)nc(C(F)(F)F)cc32)cn1	1.8	
Cc1ccc(Cn2c(=O)[nH]c3c(N)nc(-n4nccn4)cc32)cn1	1.6	
Cc1cc(Cn2c(=O)[nH]c3c(N)nc(C(F)(F)F)cc32)no1	2.1	> 16.7 h
